Data set [1] has as its system human foreskin fibroblast HFF-1 (ATCC-SCRC-1041). Nature of the data set: Cytotoxicity, MTT reduction assay. The settings on record: HFF-1, MTT; for pIC50: 24 h, tested 3.9–500 μM. The format is cell-based. On the procedure:
The cytotoxicity of arene-ruthenium(II) complexes 3a–3d was determined using the MTT (3-(4,5-dimethylthiazol-2-yl)-2,5-diphenyltetrazolium bromide; Sigma, St. Louis, MO, USA) reduction assay and a human foreskin fibroblast HFF-1 culture (ATCC-SCRC-1041) (LGC Standards Sp. z o.o., Poland) at a final concentration range of 3.9–500 µM. The HFF-1 cells were cultured in Dulbecco’s Modified Eagle’s Medium (DMEM; Sigma, St. Louis, MO, USA) with 15% fetal bovine serum (FBS; BioWest, Nuaillé, France) and penicillin/streptomycin (100 × stock solution; BioWest, Nuaillé, France), 1 × 10^6 cell/mL (100 µL/well) in 96-well tissue culture plates (Nunc, Roskilde, Denmark) for 24 h at 37 °C/5% CO2. The cells were then exposed to arene-ruthenium(II) complexes for 24 h at 37 °C. The control (untreated) cells were exposed to culture medium alone or culture medium containing 2% DMSO to exclude the effect of the solvent used to prepare the stock solutions of the tested complexes. Next, fresh culture medium (100 µL/well) and MTT (1.5 mg/mL, 50 µL/well) were added, and cells were incubated for two hours under the above conditions. MTT was […] blue formazan crystals produced by the metabolically active cells. Finally, the MTT solution was removed and replaced with 100 µL/well of 20% sodium dodecyl sulfate (SDS; Sigma, St. Louis, MO, USA) for 24 h (room temperature) to dissolve the blue formazan. Based on the absorbance (λ = 550 nm) of tested and control cells (100% viability), the percentage of cell viability after exposure was calculated. For each sample, the experiment was performed twice.

In a further data set the test system is S. aureus ATCC 29213. As to the kind of experiment: Time-kill test. The format is cell-based, Staphylococcus aureus. The settings on record: 1 × MIC. The procedure:
The time-kill experiments were performed as described previously. Briefly, inocula were prepared in TSB medium (TSB; […] BTL Sp. z o.o., Łódź, Poland). All samples were incubated at 35 °C and 80 rpm for varied time intervals (2, 4, 6, 12, 18, 24, 48h). The percentage of dead cells was calculated according to the growth control by determining the number of living cells (CFU/mL) of each tube using the agar plate count method. Samples were immediately serially diluted ten-fold in 0.01 M phosphate buffered saline (PBS, Bimed Lublin S.A., Lublin, Poland) at pH 7.0 and 10 μL aliquots were spot-inoculated in duplicate onto MHA plates. Agar plates were incubated at 37 °C overnight before determining the viable count. Two independent experiments were carried out.

pIC50: −log10 of the molar value. “And” between values parts separate entries of the source, which are not always exact repeats. Identical values can stand only once.

Turning to `Cc1cc(C)[n+]2n1C(N)=[S+][Ru-]2[Cl].Cc1ccc(C(C)C)cc1.F[P-](F)(F)(F)(F)F` [Compound 3a], in data set [1], the “Concentration above which cytotoxicity was seen” value is recorded as “above 250 μM”; the pIC50 is 3.42 and < 3.46. For the same compound, the “Time-kill: bacteriostatic or bactericidal” value in the data set on S. aureus ATCC 29213 is listed as “bacteriostatic”.

Turning to `CCc1cc(CC)[n+]2n1C(N)=[S+][Ru-]2[Cl].Cc1ccc(C(C)C)cc1.F[P-](F)(F)(F)(F)F` [Compound 3b], in data set [1], the “Concentration above which cytotoxicity was seen” value is “above 250 μM”; the pIC50 was 3.45 and < 3.46. Further, the “Time-kill: bacteriostatic or bactericidal” value in the data set on S. aureus ATCC 29213 is reported as “bacteriostatic”.

The compound “[(η^6-p-cymene)Ru(1-[amino(thioxo)methyl]-5-hydroxy-3-phenyl-1H-pyrazole)PF6 [Compound 3c]” had a pIC50 in data set [1] of 3.58. Further, the “Time-kill: bacteriostatic or bactericidal” value in the data set with S. aureus ATCC 29213 is on record as “bacteriostatic”.

The values above are taken from publication PMC8781304, “Arene-Ruthenium(II) Complexes with Carbothiamidopyrazoles as a Potential Alternative for Antibiotic Resistance in Human” (Molecules, 2022).
